From ChEMBL document CHEMBL1152750, “Design, synthesis and structure-activity relationships of 1,3,4-oxadiazole derivatives as novel inhibitors of glycogen synthase kinase-3beta” (Bioorg Med Chem, 2009)
One block for each compound: values may come before it.

Legend:
[1] = biological target: Glycogen synthase kinase-3 beta (Homo sapiens, UniProt P49841); experiment: Inhibition of human GSK3-beta
[2] = biological target: Dual specificity mitogen-activated protein kinase kinase 1 (Homo sapiens, UniProt Q02750); experiment: Inhibition of MEK1
[3] = biological target: Proto-oncogene tyrosine-protein kinase Src (Homo sapiens, UniProt P12931); experiment: Inhibition of SRC
[4] = Inhibition of PKA expressed in Escherichia coli
[5] = biological target: Cyclin-dependent kinase 2 (Homo sapiens, UniProt P24941); experiment: Inhibition of CDK2
Angiopoietin-1 receptor = Angiopoietin-1 receptor (Homo sapiens, UniProt Q02763); experiment: Inhibition of Tie2
[6] = biological target: Cyclin-dependent kinase 1 (Homo sapiens, UniProt P06493); experiment: Inhibition of CDK1
Rattus norvegicus = experiment: Volume of distribution at steady state in rat […]; type: ADME, organism-based; settings: in vivo
[7] = biological target: Mast/stem cell growth factor receptor Kit (Homo sapiens, UniProt P10721); experiment: Inhibition of cKit
[8] = biological target: Mitogen-activated protein kinase 8 (Homo sapiens, UniProt P45983); experiment: Inhibition of JNK1
[9] = Inhibition of VEGFR
[10] = biological target: Hepatocyte growth factor receptor (Homo sapiens, UniProt P08581); experiment: Inhibition of cMet
[11] = biological target: Casein kinase I isoform delta (Homo sapiens, UniProt P48730); experiment: Inhibition of CK1delta expressed in Escherichia coli
[12] = biological target: Mitogen-activated protein kinase 14 (Homo sapiens, UniProt Q16539); experiment: Inhibition of p38alpha
[13] = biological target: Fibroblast growth factor receptor 3 (Homo sapiens, UniProt P22607); experiment: Inhibition of FGFR3
[14] = biological target: Tyrosine-protein kinase Lck (Homo sapiens, UniProt P06239); experiment: Inhibition of Lck
[15] = AUC in rat at 1 mg/kg, po; type: ADME, organism-based; parameters: dose 1 mg/kg, route oral; settings: plasma
[16] = biological target: Cyclin-dependent kinase 5 (Homo sapiens, UniProt Q00535); experiment: Inhibition of CDK5
[17] = biological target: Protein kinase C theta type (Homo sapiens, UniProt Q04759); experiment: Inhibition of PKCtheta
[18] = Total clearance in rat at 0.1 mg/kg, iv; type: ADME, organism-based; parameters: dose 0.1 mg/kg, route intravenous; settings: in vivo
[19] = biological target: Inhibitor of nuclear factor kappa-B kinase subunit beta (Homo sapiens, UniProt O14920); experiment: Inhibition of IKK-beta
[20] = biological target: Receptor tyrosine-protein kinase erbB-2 (Homo sapiens, UniProt P04626); experiment: Inhibition of HER2
Aurora kinase B = Aurora kinase B (Homo sapiens, UniProt Q96GD4); experiment: Inhibition of Aurora B
[21] = biological target: Mitogen-activated protein kinase 3 (Homo sapiens, UniProt P27361); experiment: Inhibition of ERK1
[22] = Oral bioavailability in rat at 1 mg/kg; type: ADME, organism-based; settings: in vivo
[23] = biological target: Mitogen-activated protein kinase kinase kinase 1 (Homo sapiens, UniProt Q13233); experiment: Inhibition of MEKK1
[24] = biological target: Serine/threonine-protein kinase B-raf (Homo sapiens, UniProt P15056); experiment: Inhibition of BRAF
Sequence of Serine/threonine-protein kinase B-raf (P15056 whole entry): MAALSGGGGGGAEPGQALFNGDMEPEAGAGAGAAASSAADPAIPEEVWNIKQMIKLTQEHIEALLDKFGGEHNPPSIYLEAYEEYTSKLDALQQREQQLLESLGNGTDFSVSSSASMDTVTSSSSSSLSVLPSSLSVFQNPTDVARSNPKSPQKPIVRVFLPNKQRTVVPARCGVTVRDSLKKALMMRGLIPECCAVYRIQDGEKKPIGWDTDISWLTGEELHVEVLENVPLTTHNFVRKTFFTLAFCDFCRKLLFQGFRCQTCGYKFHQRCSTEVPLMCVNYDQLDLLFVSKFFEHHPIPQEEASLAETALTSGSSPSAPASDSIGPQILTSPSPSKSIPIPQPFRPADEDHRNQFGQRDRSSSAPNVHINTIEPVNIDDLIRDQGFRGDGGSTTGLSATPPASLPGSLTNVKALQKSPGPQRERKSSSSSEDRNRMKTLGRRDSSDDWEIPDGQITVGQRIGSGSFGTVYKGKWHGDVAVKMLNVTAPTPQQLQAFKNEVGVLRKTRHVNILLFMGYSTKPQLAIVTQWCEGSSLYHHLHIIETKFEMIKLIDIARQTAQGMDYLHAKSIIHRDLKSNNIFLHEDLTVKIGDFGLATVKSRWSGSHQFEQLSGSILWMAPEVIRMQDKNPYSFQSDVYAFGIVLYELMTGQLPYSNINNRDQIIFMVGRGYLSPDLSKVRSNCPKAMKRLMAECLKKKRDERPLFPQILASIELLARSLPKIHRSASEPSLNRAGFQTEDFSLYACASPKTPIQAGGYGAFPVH

Sequence of Glycogen synthase kinase-3 beta (P49841 whole entry): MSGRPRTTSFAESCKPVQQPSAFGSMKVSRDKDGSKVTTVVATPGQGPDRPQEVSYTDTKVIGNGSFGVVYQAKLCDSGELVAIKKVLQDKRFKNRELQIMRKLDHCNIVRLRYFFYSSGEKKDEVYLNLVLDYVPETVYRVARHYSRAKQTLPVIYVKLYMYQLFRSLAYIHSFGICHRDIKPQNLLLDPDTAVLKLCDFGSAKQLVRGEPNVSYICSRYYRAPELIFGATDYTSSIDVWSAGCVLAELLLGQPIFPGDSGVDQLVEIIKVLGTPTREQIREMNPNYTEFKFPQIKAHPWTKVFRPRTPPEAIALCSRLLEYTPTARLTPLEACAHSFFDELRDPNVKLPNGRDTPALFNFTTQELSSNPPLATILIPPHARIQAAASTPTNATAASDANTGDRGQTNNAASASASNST
Sequence of Aurora kinase B (Q96GD4 whole entry): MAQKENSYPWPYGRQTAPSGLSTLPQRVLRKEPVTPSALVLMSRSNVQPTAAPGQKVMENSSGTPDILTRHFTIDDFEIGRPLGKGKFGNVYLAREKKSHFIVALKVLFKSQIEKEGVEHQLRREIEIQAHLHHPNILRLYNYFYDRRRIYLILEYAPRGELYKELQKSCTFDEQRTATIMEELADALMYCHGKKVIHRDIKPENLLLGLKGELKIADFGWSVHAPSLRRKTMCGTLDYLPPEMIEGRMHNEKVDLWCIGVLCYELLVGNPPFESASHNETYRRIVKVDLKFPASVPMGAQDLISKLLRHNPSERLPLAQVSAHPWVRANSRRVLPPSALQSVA
Sequence of Hepatocyte growth factor receptor (P08581 whole entry, canonical isoform): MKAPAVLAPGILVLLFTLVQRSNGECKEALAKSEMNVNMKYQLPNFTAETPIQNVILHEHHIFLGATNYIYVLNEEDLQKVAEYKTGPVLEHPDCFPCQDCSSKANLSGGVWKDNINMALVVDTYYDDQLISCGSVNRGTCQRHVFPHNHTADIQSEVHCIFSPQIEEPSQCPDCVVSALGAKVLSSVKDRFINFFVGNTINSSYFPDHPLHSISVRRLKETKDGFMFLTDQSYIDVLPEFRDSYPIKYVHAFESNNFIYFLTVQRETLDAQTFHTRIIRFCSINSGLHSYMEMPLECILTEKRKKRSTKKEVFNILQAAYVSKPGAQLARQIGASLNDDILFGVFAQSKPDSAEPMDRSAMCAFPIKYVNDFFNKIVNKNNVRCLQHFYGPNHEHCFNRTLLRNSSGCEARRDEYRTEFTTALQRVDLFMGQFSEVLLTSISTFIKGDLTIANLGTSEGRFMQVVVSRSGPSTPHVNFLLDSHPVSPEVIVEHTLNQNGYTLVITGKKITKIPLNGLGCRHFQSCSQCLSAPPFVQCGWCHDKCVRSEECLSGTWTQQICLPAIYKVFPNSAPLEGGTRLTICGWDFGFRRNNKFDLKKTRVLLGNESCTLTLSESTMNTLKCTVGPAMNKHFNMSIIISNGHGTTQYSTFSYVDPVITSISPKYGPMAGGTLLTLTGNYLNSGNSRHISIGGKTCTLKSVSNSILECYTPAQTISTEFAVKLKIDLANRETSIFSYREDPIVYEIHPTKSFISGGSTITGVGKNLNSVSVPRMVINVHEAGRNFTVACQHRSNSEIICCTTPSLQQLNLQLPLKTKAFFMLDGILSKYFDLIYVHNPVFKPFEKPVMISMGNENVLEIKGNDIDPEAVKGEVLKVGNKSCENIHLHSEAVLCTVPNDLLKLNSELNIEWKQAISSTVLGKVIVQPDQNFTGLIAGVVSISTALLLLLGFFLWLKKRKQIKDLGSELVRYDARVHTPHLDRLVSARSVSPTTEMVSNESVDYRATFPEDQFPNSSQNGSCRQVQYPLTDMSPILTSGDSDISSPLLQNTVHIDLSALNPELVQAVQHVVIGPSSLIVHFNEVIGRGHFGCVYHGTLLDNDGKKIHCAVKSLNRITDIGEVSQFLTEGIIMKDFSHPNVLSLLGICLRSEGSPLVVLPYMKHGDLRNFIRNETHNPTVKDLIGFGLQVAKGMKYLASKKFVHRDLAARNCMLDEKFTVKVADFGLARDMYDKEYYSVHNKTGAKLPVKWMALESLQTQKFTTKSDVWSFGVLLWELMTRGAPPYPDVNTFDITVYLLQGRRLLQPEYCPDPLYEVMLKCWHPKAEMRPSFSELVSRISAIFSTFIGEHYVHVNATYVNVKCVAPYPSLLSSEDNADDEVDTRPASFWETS
Sequence of Dual specificity mitogen-activated protein kinase kinase 1 (Q02750 whole entry): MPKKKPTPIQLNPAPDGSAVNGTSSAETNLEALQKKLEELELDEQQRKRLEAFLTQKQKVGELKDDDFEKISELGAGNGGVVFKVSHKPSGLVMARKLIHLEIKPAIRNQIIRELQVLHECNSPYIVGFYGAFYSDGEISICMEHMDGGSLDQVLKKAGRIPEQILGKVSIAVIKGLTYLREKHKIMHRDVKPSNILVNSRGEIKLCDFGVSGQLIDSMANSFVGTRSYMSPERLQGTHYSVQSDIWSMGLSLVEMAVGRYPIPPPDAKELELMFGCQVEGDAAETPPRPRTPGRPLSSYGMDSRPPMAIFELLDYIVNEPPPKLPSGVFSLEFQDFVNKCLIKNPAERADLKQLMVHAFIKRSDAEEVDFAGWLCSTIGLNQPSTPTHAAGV
Sequence of Tyrosine-protein kinase Lck (P06239 whole entry): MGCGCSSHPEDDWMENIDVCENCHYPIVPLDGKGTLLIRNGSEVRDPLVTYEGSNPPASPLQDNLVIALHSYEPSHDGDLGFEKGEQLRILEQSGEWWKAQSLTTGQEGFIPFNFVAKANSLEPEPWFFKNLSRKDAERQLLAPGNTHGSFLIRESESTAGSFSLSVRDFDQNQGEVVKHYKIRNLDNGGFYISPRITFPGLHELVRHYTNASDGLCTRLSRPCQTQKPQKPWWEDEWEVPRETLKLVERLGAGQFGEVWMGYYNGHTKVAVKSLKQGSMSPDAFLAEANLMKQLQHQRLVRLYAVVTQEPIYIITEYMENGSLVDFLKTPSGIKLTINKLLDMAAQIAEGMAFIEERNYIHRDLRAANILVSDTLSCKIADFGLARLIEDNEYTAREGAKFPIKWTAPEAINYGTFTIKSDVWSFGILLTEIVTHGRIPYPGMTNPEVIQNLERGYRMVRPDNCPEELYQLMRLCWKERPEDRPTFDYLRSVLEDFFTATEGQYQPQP
Sequence of Inhibitor of nuclear factor kappa-B kinase subunit beta (O14920 whole entry): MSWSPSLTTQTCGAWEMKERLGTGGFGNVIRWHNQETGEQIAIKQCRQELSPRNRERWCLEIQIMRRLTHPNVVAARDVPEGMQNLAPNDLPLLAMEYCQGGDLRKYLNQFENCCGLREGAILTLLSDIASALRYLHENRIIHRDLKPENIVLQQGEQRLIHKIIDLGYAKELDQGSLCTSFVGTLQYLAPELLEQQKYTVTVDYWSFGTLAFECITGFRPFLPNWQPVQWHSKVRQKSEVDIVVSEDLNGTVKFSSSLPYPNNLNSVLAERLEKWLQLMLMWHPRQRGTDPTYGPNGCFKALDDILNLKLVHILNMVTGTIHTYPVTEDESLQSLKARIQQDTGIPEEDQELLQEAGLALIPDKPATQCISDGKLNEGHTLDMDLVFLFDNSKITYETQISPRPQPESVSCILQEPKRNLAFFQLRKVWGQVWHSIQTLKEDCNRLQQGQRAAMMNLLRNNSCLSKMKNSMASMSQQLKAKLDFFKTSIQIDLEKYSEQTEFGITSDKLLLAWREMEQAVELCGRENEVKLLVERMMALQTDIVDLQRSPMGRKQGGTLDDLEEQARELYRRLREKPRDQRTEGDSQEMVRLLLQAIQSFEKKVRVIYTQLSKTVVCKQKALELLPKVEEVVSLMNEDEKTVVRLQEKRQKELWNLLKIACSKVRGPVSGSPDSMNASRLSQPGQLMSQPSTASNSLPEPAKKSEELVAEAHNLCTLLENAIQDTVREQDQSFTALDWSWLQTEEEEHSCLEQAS
Sequence of Mitogen-activated protein kinase 14 (Q16539 whole entry): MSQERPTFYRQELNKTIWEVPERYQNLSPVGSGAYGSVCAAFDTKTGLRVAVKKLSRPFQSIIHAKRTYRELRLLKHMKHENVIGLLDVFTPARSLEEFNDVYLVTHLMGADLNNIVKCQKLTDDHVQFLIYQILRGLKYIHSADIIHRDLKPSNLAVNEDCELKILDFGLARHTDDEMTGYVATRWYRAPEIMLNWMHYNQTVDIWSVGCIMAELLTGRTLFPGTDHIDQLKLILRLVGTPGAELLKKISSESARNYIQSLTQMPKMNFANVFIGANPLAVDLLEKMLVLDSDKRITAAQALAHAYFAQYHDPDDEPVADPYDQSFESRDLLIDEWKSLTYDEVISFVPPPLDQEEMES

IC50 [1]: 54 nM
Compound: Fc1cccc(CSc2nnc(-c3ccc4c(c3)CCO4)o2)c1

IC50 [1]: 630 nM
Compound: COC(=O)c1cccc(CSc2nnc(-c3ccc4c(c3)CCO4)o2)c1

IC50 [1]: 210 nM
Compound: c1ccc(CSc2nnc(-c3ccc4c(c3)CCO4)o2)cc1

IC50 [1]: 220 nM
Compound: COc1ccc(CSc2nnc(-c3ccc4c(c3)CCO4)o2)cc1

IC50 [1]: 200 nM
Compound: Clc1ccccc1CSc1nnc(-c2ccc3c(c2)CCO3)o1

IC50 [1]: 91 nM
Compound: N#Cc1cccc(CSc2nnc(-c3ccc4c(c3)CCO4)o2)c1

IC50 [1]: 280 nM
Compound: Clc1ccc(CSc2nnc(-c3ccc4c(c3)CCO4)o2)cc1

IC50 [1]: 94 nM
Compound: Clc1cccc(CSc2nnc(-c3ccc4c(c3)CCO4)o2)c1

IC50 [1]: 68 nM
Compound: FC(F)(F)c1cccc(CSc2nnc(-c3ccc4c(c3)CCO4)o2)c1

The next lines start with the compound.

Compound: COc1ccc(-c2coc3ccc(-c4nnc(SCc5cccc(C#N)c5)o4)cc23)cc1
IC50 [1]: 3.5 nM

Compound: O=[N+]([O-])c1ccc(NCCNc2ncc(-c3ncc[nH]3)c(-c3ccc(Cl)cc3Cl)n2)nc1
IC50 [1]: 10 nM

Compound: Fc1cccc(SCc2nnc(-c3ccc4c(c3)CCO4)o2)c1
IC50 [1]: 680 nM

Compound: COc1ccc(CSc2nnc(-c3ccc4[nH]ncc4c3)o2)cc1C(F)(F)F
IC50 [1]: 16 nM

Compound: COc1ccc(CSc2nnc(-c3ccc4c(c3)CCO4)o2)cc1C#N
IC50 [1]: 28 nM

Compound: COc1ccc(-n2cnc3ccc(-c4nnc(SCc5cccc(C(F)(F)F)c5)o4)cc32)cc1
IC50 [1]: 2.5 nM

Compound: COc1ccc(-n2cnc3ccc(-c4nnc(SCc5ccc(OC)c(C(F)(F)F)c5)o4)cc32)cc1
IC50 [1]: 8.6 nM

Compound: COc1ccc(CSc2nnc(-c3ccc4ncccc4c3)o2)cc1C(F)(F)F
IC50 [1]: 18 nM

Compound: COc1ccc(-c2coc3ccc(-c4nnc(SCc5ccc(OC)c(C(F)(F)F)c5)o4)cc23)cc1
IC50 [1]: 25 nM

Compound: Fc1cccc(COc2nnc(-c3ccc4c(c3)CCO4)o2)c1
IC50 [1]: > 10000 nM

Compound: Fc1cccc(CNc2nnc(-c3ccc4c(c3)CCO4)o2)c1
IC50 [1]: 330 nM

Compound: Cn1cnc2ccc(-c3nnc(SCc4cccc(C(F)(F)F)c4)o3)cc21
IC50 [1]: 9.4 nM

Compound: COc1ccc(CSc2nnc(-c3ccc4ncsc4c3)o2)cc1C(F)(F)F
IC50 [1]: 3.1 nM

Compound: COc1ccc(-c2coc3ccc(-c4nnc(SCc5cccc(C(F)(F)F)c5)o4)cc23)cc1
IC50 [1]: 8.4 nM

Compound: COc1ccc(CSc2nnc(-c3ccc4c(c3)CCO4)o2)cc1C(F)(F)F
IC50 [1]: 5.7 nM

Compound: COc1ccc(CSc2nnc(-c3ccc4c(c3)CCO4)o2)cc1F
IC50 [1]: 44 nM

Compound: Fc1cccc(CCc2nnc(-c3ccc4c(c3)CCO4)o2)c1
IC50 [1]: 340 nM

Compound: COc1ccc(CSc2nnc(-c3ccc4c(c3)CCO4)o2)cc1Cl
IC50 [1]: 13 nM

Compound: COc1ccc(-n2cnc3ccc(-c4nnc(SCc5cccc(C#N)c5)o4)cc32)cc1
IC50 [2]: > 10000 nM
IC50 [3]: > 10000 nM
IC50 [4]: > 10000 nM
IC50 [5]: > 10000 nM
IC50 (Angiopoietin-1 receptor): > 10000 nM
IC50 [6]: 4600 nM
Vdss (Rattus norvegicus): 1.453 L/kg
IC50 [7]: > 10000 nM
IC50 [8]: > 10000 nM
IC50 [9]: > 10000 nM
IC50 [10]: > 10000 nM
IC50 [11]: > 10000 nM
IC50 [12]: > 10000 nM
IC50 [13]: > 10000 nM
IC50 [14]: > 10000 nM
AUC [15]: 7.9 ng·h/mL
IC50 [16]: > 10000 nM
IC50 [17]: 3500 nM
IC50 [1]: 2.3 nM
clearance [18]: 35.6 mL/min/kg
IC50 [19]: > 10000 nM
IC50 [20]: > 10000 nM
IC50 (Aurora kinase B): > 10000 nM
IC50 [21]: > 10000 nM
bioavailability [22]: 1.7%
IC50 [23]: 8100 nM
IC50 [24]: > 10000 nM

Compound: COc1ccc(CSc2nnc(-c3ccc4occc4c3)o2)cc1C(F)(F)F
IC50 [1]: 4.9 nM
